Our source for the MIC50, MIC90 and MIC values is ChEMBL document CHEMBL4004803, “Syntheses and antibacterial activity of soluble 9-bromo substituted indolizinoquinoline-5,12-dione derivatives” (Eur J Med Chem, 2017).

Holding throughout (type): functional
Assay [1] relates to Staphylococcus aureus. Description: Antibacterial activity against methicillin-resistant Staphylococcus aureus clinical isolate after 20 to 24 hrs by two-fold microdilution method.
Assay [2] has as its system Staphylococcus aureus. Description: Antibacterial activity against methicillin-resistant Staphylococcus aureus 1216052 clinical isolate after 20 to 24 hrs by two-fold microdilution method. A general note: Broth dilution looks for growth in wells or tubes with falling amounts of substance.
The test system of assay [3] is Staphylococcus aureus. Description: Antibacterial activity against methicillin-resistant Staphylococcus aureus 111423 clinical isolate after 20 to 24 hrs by two-fold microdilution method.
In assay [4] the test system is Staphylococcus aureus. Description: Antibacterial activity against methicillin-resistant Staphylococcus aureus 1106003 clinical isolate after 20 to 24 hrs by two-fold microdilution method.
For assay [5], the system named is Staphylococcus aureus. Kind of assay: Antibacterial activity against methicillin-resistant Staphylococcus aureus 1026021 clinical isolate after 20 to 24 hrs by two-fold microdilution method.
In assay [6] the test system is Staphylococcus aureus. Description: Antibacterial activity against methicillin-resistant Staphylococcus aureus 1103006 clinical isolate after 20 to 24 hrs by two-fold microdilution method.

Structures are written as SMILES. In brackets after ≈: the same amount, converted by molar mass.

`CN[C@H](CC(C)C)C(=O)N[C@H]1C(=O)N[C@@H](CC(N)=O)C(=O)N[C@H]2C(=O)N[C@H]3C(=O)N[C@H](C(=O)N[C@H](C(=O)O)c4cc(O)cc(O)c4-c4cc3ccc4O)[C@H](O)c3ccc(c(Cl)c3)Oc3cc2cc(c3O[C@@H]2O[C@H](CO)[C@@H](O)[C@H](O)[C@H]2O[C@H]2C[C@](C)(N)[C@H](O)[C@H](C)O2)Oc2ccc(cc2Cl)[C@H]1O` [VANCOMYCIN]: the MIC50 in the assay on Staphylococcus aureus [1] came to 1 µg/mL (≈ 0.69 µM). Moreover, in the assay on Staphylococcus aureus [1], the MIC90 turned out to be 2 µg/mL (≈ 1.38 µM). For the same compound, the MIC in the assay on Staphylococcus aureus [2] was greater than 16 µg/mL; in the assay with Staphylococcus aureus [3], greater than 16 µg/mL; in the assay on Staphylococcus aureus [4], greater than 16 µg/mL; against Staphylococcus aureus [5], 16 µg/mL (≈ 11 µM); against Staphylococcus aureus [6], greater than 16 µg/mL.

In general, MIC50 refers to the lowest concentration that inhibits either 50% of growth or 50% of the strains tested, depending on the study. Usually MIC90 stands for an inhibitory concentration at the 90% level, which refers to growth in some studies and to a panel of isolates in others. A higher MIC90 goes with lower susceptibility. What is called MIC is the lowest concentration that inhibits growth of the organism. Lower therefore signals a more susceptible organism.
